For data set [1], the system named is 6C3HED, CA755, P1534J, X5563. Nature of the data set: additional tumor test systems (summary statement). In kind it is in vivo, mice. The settings on record: systems include 6C3HED. An excerpt: These systems include the 6C3HED lymphosarcoma, also known as the Gardner lymphosarcoma (6C3HED); the CA-755 adenocarcinoma (CA755); the P1534J lymphatic leukemia (P1534J); and the X5563 plasma cell myeloma (X5563). Each of these systems is described in detail below.
The tumor was removed from passage animals and minced into 1 to 3 mm square fragments using sterile techniques. Tumor pieces were checked for sterility using both Antibiotic Medium 1 and Brain Heart Infusion (Difco; Detroit, Mich.). Recipient mice were shaved and tumor pieces were implanted subcutaneously in the axillary region by trocar. Drug therapy on the appropriate schedule was initiated on the day after tumor implant. The compound was dissolved in saline for all experiments. All animals were weighed at the beginning and end of drug treatment. Food and water were provided ad libitum. On days 10 to 12, two dimensional measurements (width and length) of all tumors were taken using vernier calipers. Tumor weights were calculated from these measurements using the following formula: […]

Data set [2] has as its system P1534J lymphatic leukemia. Nature of the data set: P1534J lymphatic leukemia tumor model. Format: in vivo, mice (DBA/2). The settings on record: IP, Days 1,5,9. The source says: P1534J--The P1534J lymphocytic leukemia (solid form) was obtained in 1973 from the Jackson Laboratory (Bar Harbor, Me.). First passage tumor was stored in liquid nitrogen using standard techniques. Subsequent replenishment of the tumor bank with this tumor was accomplished from first passage tumor. The transplanted tumor was re-established from the tumor bank every six months or as needed. The tumor is maintained by serial passage once a week in DBA/2 mice (Charles River; Wilmington, Mass.).
The tumor was removed from passage animals and minced into 1 to 3 mm square fragments using sterile techniques. Tumor pieces were checked for sterility using both Antibiotic Medium 1 and Brain Heart Infusion (Difco; Detroit, Mich.). Recipient mice were shaved and tumor pieces were implanted subcutaneously in the axillary region by trocar. Drug therapy on the appropriate schedule was initiated on the day after tumor implant. The compound was dissolved in saline for all experiments. All animals were weighed at the beginning and end of drug treatment. Food and water were provided ad libitum. On days 10 to 12, two dimensional measurements (width and length) of all tumors were taken using vernier calipers. Tumor weights were calculated from these measurements using the following formula:
Tumor Weight (mg)=Tumor Length (mm)×Tumor Width (mm)^2 /2
For all data, the tumor weight was rounded to the nearest tenth of a gram for analysis. No group is included in the analysis for therapeutic activity in which deaths attributable to drug toxicity exceeded 30 percent of the treated group.
In Table 3 which follows, column 1 gives the example number of the compound tested; column 2 provides the tumor system; column 3, the dose level; column 4, the route administered; column 5, the dosage schedule; column 6, the percent inhibition of the tumor; and column 7, the toxic deaths observed prior to completion of the study.

Each structure is given as a SMILES string.

Consider `Nc1ccn(C2O[C@H](CO)[C@@H](O)C2(F)F)c(=O)n1` (some centres unmarked) [Example 1, 1-(4-Amino-2-oxo-1H-pyrimidin-1-yl)-2-desoxy-2,2-difluororibose], for which the “activity in additional tumor test systems (in words)” value in data set [1] is “demonstrated activity in additional tumor test systems”. Further, the “Percent Inhibition of Tumor” value was 8% in data set [2] (1.25 mg/kg); 30% in data set [2] (2.5 mg/kg); 47% in data set [2] (5.0 mg/kg); 71% in data set [2] (10.0 mg/kg); 92% in data set [2] (20.0 mg/kg). For the same compound, the “Toxic Deaths” value was 0/10 in data set [2] (1.25 mg/kg); 0/10 in data set [2] (2.5 mg/kg); 0/10 in data set [2] (5.0 mg/kg); 2/10 in data set [2] (10.0 mg/kg); 1/10 in data set [2] (20.0 mg/kg).

The values are drawn from patent publication US5464826A, “Method of treating tumors in mammals with 2',2'-difluoronucleosides” (Eli Lilly and Company, priority 1994, dated 1995).
